Activity calls are given as the source filed them. No cut-off for these calls is given here.
What was measured:
[1] = molecular target: T1, Peroxisome proliferator-activated receptor gamma (Homo sapiens, UniProt P37231); assay: Agonist activity at GAL4-fused PPARgamma (unknown origin) expressed in HEK293T cells incubated for 24 by BrightGlo reagent based assay; format: cell-based
T1 sequence (P37231 whole entry): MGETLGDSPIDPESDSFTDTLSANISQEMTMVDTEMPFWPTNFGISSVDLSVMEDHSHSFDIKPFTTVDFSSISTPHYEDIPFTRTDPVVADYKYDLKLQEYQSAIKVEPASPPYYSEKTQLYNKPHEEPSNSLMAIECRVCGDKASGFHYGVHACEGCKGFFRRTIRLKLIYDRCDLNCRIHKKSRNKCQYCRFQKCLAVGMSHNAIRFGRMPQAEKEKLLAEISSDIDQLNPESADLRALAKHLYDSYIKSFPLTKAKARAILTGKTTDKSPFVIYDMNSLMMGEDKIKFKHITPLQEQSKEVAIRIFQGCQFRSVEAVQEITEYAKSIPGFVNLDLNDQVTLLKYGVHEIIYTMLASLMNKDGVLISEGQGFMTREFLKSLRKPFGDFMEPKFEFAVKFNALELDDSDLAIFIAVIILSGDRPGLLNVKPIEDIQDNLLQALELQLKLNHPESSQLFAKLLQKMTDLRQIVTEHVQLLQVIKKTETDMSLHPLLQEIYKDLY

Rattus norvegicus [2] = assay: In-vivo agonist activity at FXR in orally dosed Han Wistar rat assessed as upregulation of SHP mRNA level in ileum administered via oral gavage once daily for 14 days measured post last dose by qRT-PCR analysis; format: functional, organism-based
[3] = AUC in Wistar rat at 3 mg/kg, po; format: ADME, organism-based; settings: in vivo
[4] = Oral bioavailability in Wistar rat at 10 mg/kg in presence of PEG 300/D5W(3:1); format: ADME, organism-based; settings: in vivo
[5] = Half life in Wistar rat at 300 mg/kg, po; format: ADME, organism-based; settings: in vivo
[6] = AUC in Wistar rat brain at 10 mg/kg, po; format: ADME, organism-based
[7] = AUC in Wistar rat at 300 mg/kg, po; format: ADME, organism-based; settings: in vivo
Mus musculus [8] = assay: Anti Steato-hepatitic activity in STZ/HFD induced oral dosed C57BL/6J mouse STAM model assessed as reduction in macrovesicular fat deposition administered via oral gavage once daily for 3 weeks and measured on 9 week by H and E staining based assay; format: functional, organism-based
[9] = Half life in Wistar rat at 3 mg/kg, po; format: ADME, organism-based; settings: in vivo
[10] = Half life in rabbit at 5 mg/kg, iv; format: ADME, organism-based, Oryctolagus cuniculus; settings: in vivo
Androgen receptor = molecular target: T2, Androgen receptor (Homo sapiens, UniProt P10275); assay: Agonist activity at androgen receptor (unknown origin) incubated for 2 hrs by TR-FRET assay
T2 sequence (P10275 whole entry): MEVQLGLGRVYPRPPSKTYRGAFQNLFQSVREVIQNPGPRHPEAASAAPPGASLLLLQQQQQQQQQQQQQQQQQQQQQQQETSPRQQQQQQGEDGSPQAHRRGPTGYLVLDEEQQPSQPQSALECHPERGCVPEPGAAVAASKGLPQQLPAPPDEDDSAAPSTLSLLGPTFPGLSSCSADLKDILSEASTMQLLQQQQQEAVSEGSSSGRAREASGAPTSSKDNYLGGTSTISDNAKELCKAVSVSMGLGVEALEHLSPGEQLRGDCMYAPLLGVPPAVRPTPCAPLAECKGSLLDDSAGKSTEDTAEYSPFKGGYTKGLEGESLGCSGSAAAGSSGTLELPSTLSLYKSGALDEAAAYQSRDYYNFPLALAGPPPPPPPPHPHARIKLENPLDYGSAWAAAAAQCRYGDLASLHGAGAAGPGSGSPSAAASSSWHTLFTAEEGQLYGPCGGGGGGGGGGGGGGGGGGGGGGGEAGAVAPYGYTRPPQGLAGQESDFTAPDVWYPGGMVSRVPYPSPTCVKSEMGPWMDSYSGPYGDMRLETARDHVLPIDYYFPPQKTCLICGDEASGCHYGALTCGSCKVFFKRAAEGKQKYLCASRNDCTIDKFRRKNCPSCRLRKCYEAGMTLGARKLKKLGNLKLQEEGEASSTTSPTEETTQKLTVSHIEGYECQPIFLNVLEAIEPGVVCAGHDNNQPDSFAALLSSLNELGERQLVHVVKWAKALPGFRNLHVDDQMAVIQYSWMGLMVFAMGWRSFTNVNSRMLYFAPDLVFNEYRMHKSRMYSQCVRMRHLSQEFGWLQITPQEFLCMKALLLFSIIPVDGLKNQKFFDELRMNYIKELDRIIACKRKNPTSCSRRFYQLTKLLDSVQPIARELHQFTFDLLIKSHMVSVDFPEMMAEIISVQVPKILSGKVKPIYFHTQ

Mus musculus [11] = species: Mus musculus; assay: Anti Steato-hepatitic activity in C57BL/6J mouse STAM model assessed as change in Cyp8b1 gene level in liver; format: functional, organism-based
[12] = Ratio of AUC in Brain to plasma in Wistar rat […] at 10 mg/kg, po; format: ADME, organism-based; settings: read-out: Ratio AUC
Rattus norvegicus [13] = assay: In-vivo agonist activity at FXR in orally dosed Han Wistar rat assessed as upregulation of BSEP mRNA level in liver administered via oral gavage once daily for 14 days measured post last dose by qRT-PCR analysis; format: functional, organism-based
[14] = molecular target: T3, Nuclear receptor subfamily 1 group I member 2 (Homo sapiens, UniProt O75469); assay: Agonist activity at PXR (unknown origin) incubated for 2 hrs by TR-FRET assay
T3 sequence (O75469 whole entry): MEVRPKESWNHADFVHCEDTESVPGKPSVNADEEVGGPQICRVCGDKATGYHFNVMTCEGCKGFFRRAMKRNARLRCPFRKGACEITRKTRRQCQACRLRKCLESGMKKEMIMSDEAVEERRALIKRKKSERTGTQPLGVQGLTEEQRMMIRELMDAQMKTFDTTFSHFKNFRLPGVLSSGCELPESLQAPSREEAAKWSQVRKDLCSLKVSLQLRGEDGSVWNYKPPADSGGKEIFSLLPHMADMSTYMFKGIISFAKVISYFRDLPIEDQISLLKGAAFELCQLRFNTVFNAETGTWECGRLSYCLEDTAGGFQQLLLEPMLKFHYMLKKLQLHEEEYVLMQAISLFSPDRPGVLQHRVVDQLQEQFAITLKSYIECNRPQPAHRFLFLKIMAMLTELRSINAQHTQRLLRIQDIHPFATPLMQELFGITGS

[15] = Cmax in Wistar rat at 100 mg/kg, po; format: ADME, organism-based; parameters: dose 100 mg/kg, route oral; settings: in vivo

## Cn1nc(C(=O)N(Cc2ccccc2)Cc2ccc(C(=O)O)cc2)c2c1-c1cc(Cl)ccc1OC2 [NIDUFEXOR]
[1]
  EC50: > 10 µM
Rattus norvegicus [2]
  Activity: Dose-dependent effect
[3]
  AUC: 9.2 µM·h
[4]
  bioavailability: 51%
[5]
  half-life: 6.3 h
[6]
  AUC: 1.11 µM·h
[7]
  AUC: 1040 µM·h
Mus musculus [8]
  Activity: Dose-dependent effect
[9]
  half-life: 3.9 h
[10]
  half-life: 4.4 h
Androgen receptor
  EC50: > 30 µM
Mus musculus [11]
  Activity: Active
[12]
  Kp: 0.05
Rattus norvegicus [13]
  Activity: Dose-dependent effect
[14]
  EC50: > 30 µM
[15]
  Cmax: 80.9 µM

Source: ChEMBL document CHEMBL4402557, “Nidufexor (LMB763), a Novel FXR Modulator for the Treatment of Nonalcoholic Steatohepatitis” (J Med Chem, 2020)
